Assays:
[1] = Glass-transition temperature, Tg; format: physicochemical
[2] = Terahertz time-domain spectroscopy (THz-TDS) dielectric losses of polyalcohols, linear fits ε″(T/Tg)=A+BT/Tg; format: physicochemical; settings: for B3, linear coefficient of ε″(T/Tg)=A+BT/Tg in region (iii) / B1, linear coefficient of ε″(T/Tg)=A+BT/Tg in region (i) / B2, linear coefficient of ε″(T/Tg)=A+BT/Tg in region (ii): 1 THz, brackets = standard deviation at last decimal place; for B3, linear coefficient of ε″(T/Tg)=A+BT/Tg in region (iii): above Tg; for B1, linear coefficient of ε″(T/Tg)=A+BT/Tg in region (i): below about 0.6 Tg; for Tα, crossover point of linear fits from region (ii) to region (iii) / Tβ, crossover point of linear fits from region (i) to region (ii) / Tβ/Tg: dielectric losses at 1 THz; for B2, linear coefficient of ε″(T/Tg)=A+BT/Tg in region (ii): between about 0.6 Tg and Tg
Excerpt: In these examples, systematic THz-TDS study allows direct access to the complex dielectric function for the frequency range of 0.1-3 THz, over a wide range of temperatures. For these experiments, the samples were melted (except glycerol, which is liquid at room temperature), loaded into a continuous-flow cryostat and cooled at a rate of approximately 25 K·min^−1 to 80 K, followed by subsequent heating by 10 K increments to 310 K. Spectra were acquired using a THz-TDS setup operating in transmission geometry. All four polyalcohols were purchased from Sigma-Aldrich with >99% purity. The samples were used without further purification. […] The solid lines represent linear fits to the data in regions (i) below a transition temperature of about 0.6 Tg, (ii) between the transition temperature and Tg, and (iii), above Tg. The dashed vertical lines highlight the temperatures 0.6Tg and Tg, respectively. Tβ and Tα represent the crossover points (changes in gradient) of the linear fits from region (i) to region (ii), and from region (ii) to region (iii), respectively. […] The temperature dependence of ∈″(v) at v=1 THz is shown in FIG. 6 for all four polyalcohol materials. Here, we use the rescaled temperature T/Tg on the abscissa to compare the common features of the glassy state between the different polyalcohols. Three absorption regimes can be resolved in all samples: (i) temperature-independent losses; ii) a weak temperature dependence of losses below Tg; and iii) a strong temperature dependence of losses above Tg, as proposed previously. More detailed information was extracted by fitting the data points with an empirical linear fit, viz. ∈″(T/Tg)=A+BT/Tg, in each of the respective temperature regions. In Table I, we summarize the crossover temperatures Tβ and Tα between regions (i)-(ii) and (ii)-(iii), respectively, together with the respective gradients B1,2,3 obtained separately for each region, (i), (ii) and (iii). For all samples, Tα corresponds to Tg, the temperature above which the temperature-dependent part of ∈″(v) becomes dominated by the primary dielectric relaxation.

[3] = known from earlier investigations; cited from earlier work
[4] = Terahertz absorption coefficient of amorphous paracetamol and indomethacin at 1 THz versus T/Tg; format: physicochemical; settings: transmission
Excerpt: FIG. 3 plots the results of the characterisation of these materials. FIG. 3 plots the absorption coefficient for terahertz radiation (α/cm^−1) measured in transmission through the material at 1 THz, against temperature (plotted as T/Tg) for each material. As set out in the Summary of the Invention, the rate of change of the loss of EM radiation with temperature (the gradient of the graph in FIG. 3) may then be assessed, or measured, and as appropriate compared with a predetermined value in order to achieve a quantitative, or relative, characterisation of the stability of the amorphous material as described below. In FIG. 3, the plotted results for indomethacin show two distinct linear regions, firstly a small and constant rate of change, or gradient, for the absorption of the radiation below Tg, and secondly a marked change to a higher rate of change, or gradient, above Tg. By contrast the plotted results for paracetamol show three different linear regions, namely a low rate of change below a transition temperature of about 0.6 Tg, a higher rate of change between 0.6 Tg and Tg, and a still higher rate of change above Tg.

[5] = cited from earlier work; for stability of the glass (amorphous phase): known from direct measurements of crystallisation during storage; for resistance to crystallisation of the amorphous material below Tg: stored below Tg
[6] = trehalose/glycerol mixtures by glycerol weight concentration, Table 3

Row | Tg [1, 6] [°C] | Tg ([1]; polyalcohols, Table 1) [°C] | B3, linear coefficient of ε″(T/Tg)=A+BT/Tg in region (iii) [2] | B1, linear coefficient of ε″(T/Tg)=A+BT/Tg in region (i) [2] | Tα, crossover point of linear fits from region (ii) to region (iii) [2] [K] | thermal change in absorption of terahertz radiation between 0.6 Tg-1.0 Tg [4] | B2, linear coefficient of ε″(T/Tg)=A+BT/Tg in region (ii) [2] | stability of the amorphous material indicated by gradient in region (ii) and changes in gradient ([2]; FIG. 5) | Tβ, crossover point of linear fits from region (i) to region (ii) [2] [K] | Tβ/Tg [2] | temperature above which the sample recrystallised ([2]; during heating in the THz-TDS run) | Compound | fragility index, m [3] | stability of the glass (amorphous phase) [5] | resistance to crystallisation of the amorphous material below Tg [5]
1 | 115 |  |  |  |  |  |  |  |  |  |  | OC[C@H]1O[C@H](O[C@H]2O[C@H](CO)[C@@H](O)[C@H](O)[C@H]2O)[C@H](O)[C@@H](O)[C@@H]1O [0%, trehalose] |  |  | 
2 | -83 | -81.4 | 0.64(1) | 0.03(1) | 189 |  |  |  |  |  |  | OCC(O)CO [glycerol] | 57 |  | 
3 |  |  |  |  |  | very low |  |  |  |  |  | COc1ccc2c(c1)c(CC(=O)O)c(C)n2C(=O)c1ccc(Cl)cc1 [indomethacin] |  | very good stability | much more stable
4 |  |  |  |  |  | well developed |  |  |  |  |  | CC(=O)Nc1ccc(O)cc1 [paracetamol] |  | poor stability | crystallises rather readily
5 |  | -4.8 | 1.92(5) | 0.02(2) | 265 |  | 0.34(2) | relatively poor stability | 150 | 0.56 |  | OC[C@@H](O)[C@@H](O)[C@H](O)[C@@H](O)CO [sorbitol] | 128 |  | 
6 |  | -46.8 | 0.43(15) | 0.07(1) | 228 |  | 0.09(1) |  | 147 | 0.65 | above 250 K | OC[C@@H](O)[C@H](O)CO [threitol] | 79 |  | 
7 |  | -25.3 | 0.82(4) | 0.06(1) | 248 |  | 0.13(3) |  | 167 | 0.68 |  | OC[C@@H](O)[C@H](O)[C@@H](O)CO [xylitol] | 94 |  | 
